Measurements reported in patent US20100261606A1, “Homogeneous and Storage-Stable Mixtures of Different Active Plant Protection Agent Granule Particles” (priority 2007, published 2010).
Several values for one entry are separate records, joined by “and”; a condition that tells them apart may be missing. Identical values can stand only once. Like-named read-outs stand apart in the source and are kept apart here.

Assay type: physicochemical
Text: This therefore allows the use according to the invention of these mixture packs for plant protectant active substances which had previously shown to be “incompatible” in mixture with other active substances on or in a granule particle. Determining the “incompatibility” of individual active substances in an active substance mixture is effected by simply measuring the remaining residual amounts of active substance after a predetermined storage period. The reasons for this active substance “incompatibility” with other active substances may be based on a very wide range of factors. However, it poses a serious problem for formulation research, when active substance mixtures required by the market cannot be realized due to this problem. [table]

[1] = in Granule coformulation (2), prior art, n = 1
[2] = in Granule mixture (1), according to the invention, n = 3

Compound	Absolute content after 2 months' storage at 40° C. [1]	Absolute content at the beginning of the storage [1]	Percentage change after 2 months' storage at 40° C. [1]	Absolute content after 2 months' storage at 40° C. [2]	Absolute content at the beginning of the storage [2]	Percentage change after 2 months' storage at 40° C. [2]	Degradation during storage (in words)	Change in content during storage (in words) (in granule mixture (according to the invention))
O=C(Nc1ccc(F)cc1F)c1cccnc1Oc1cccc(C(F)(F)F)c1 [Diflufenican, diflufenican]	3.79 % by weight	3.79 % by weight	0.0%	12.8 % by weight and 12.1 % by weight	12.5 % by weight and 12.3 % by weight and 12.1 % by weight			
CC(C)N(C(=O)COc1nnc(C(F)(F)F)s1)c1ccc(F)cc1 [Flufenacet, flufenacet]	12.10 % by weight	12.40 % by weight	−2.4%	39.2 % by weight and 38.3 % by weight and 39.9 % by weight	39.8 % by weight and 40.0 % by weight and 40.6 % by weight	−1.5% and −4.3% and −1.7%		
COc1nc(C)nc(NC(=O)NS(=O)(=O)c2cc(I)ccc2C(=O)O)n1 [Iodosulfuron, iodosulfuron]	0.039 % by weight	0.135 % by weight	−71.0%	0.367 % by weight and 0.360 % by weight and 0.382 % by weight	0.330 % by weight and 0.312 % by weight and 0.378 % by weight		severe degradation	no appreciable change
